Experimental data reported in paper PMC12930396, “Positive modulators of N-methyl-D-aspartate receptor: structure–activity relationship study on steroidal C-17 and C-20 oxime ethers” (RSC Advances, 2026).
Where “and” joins values, the source holds several entries; their conditions need not be identical. Equal values may be shown once.

Legend:
GluN1/GluN2B receptors = target: T1, GluN1/GluN2B receptors (Rattus norvegicus, UniProt P35439+Q00960); test: Patch-clamp: modulation of glutamate-induced currents of recombinant GluN1/GluN2B receptors expressed in HEK293 cells; assay type: cell-based
T1 construct: expressed in transfected cells; host or cells: HEK293 cells (ATCC No. CRL-1573)
Method: To investigate the effect of compounds 11–23 on the activity of NMDARs, electrophysiological measurements were performed on HEK293 cells that were co-transfected with cDNAs containing genes encoding for the rat GluN1-1a and GluN2B subunits. The degree of modulation (E; potentiation/inhibition) for the newly synthesized compounds was determined using the following formula: [drawing 1] where Ie is the value of the current amplitude during glutamate and compound coapplication, and Ia is the current amplitude value for glutamate application. […] The results are presented as mean ± standard error of the mean (SEM), with n equal to the number of independent measurements. One-way analysis of variance (ANOVA) was used for multiple comparisons (unless otherwise stated, a value of P ≤ 0.05 was used for the determination of significance).
We have evaluated the relationship between oxime derivatives 11–23 and their modulatory effect on recombinant GluN1/GluN2B receptors. Due to the […] effect of neurosteroid-based PAMs at NMDARs[20,44]
HEK293 cells (American Type Culture Collection, ATCC No. CRL-1573, Rockville, MD, USA) were cultured in Opti-MEM I (Invitrogen, Carlsbad, CA, USA) supplemented with 5% fetal bovine serum (FBS; PAN Biotech, Aidenbach, Germany) at 37 °C in 5% CO2. 24 h before transfection, HEK293 cells were plated in 24-well plates at a density of 2 × 10^5 cells per well. The next day, the cells were transfected with cDNA encoding rat GluN1-1a (GluN1; GenBank accession number U08261)[56] and GluN2B (GenBank accession number M91562)[57] subunits (in the pCI-neo expression vector), along with green fluorescent protein (GFP; in the pQBI 25 vector, Takara, Tokyo, Japan). Briefly, equal amounts (200 ng) of cDNAs encoding GluN1-1a, GluN2B, and GFP were mixed with 0.6 µl of Matra-A reagent (IBA, Gottingen, Germany) in 50 µL of Opti-MEM I and added to confluent HEK293 cells cultured in 24-well plates. After trypsinization, the cells were resuspended in Opti-MEM I containing 1% FBS, supplemented with 20 mM MgCl2, 1 mM D,L-2-amino-5-phosphonovaleric acid, 3 mM kynurenic acid, and 1 µM ketamine, and plated on 30 mm glass coverslips coated with collagen and poly-L-lysine. Transfected cells were identified by GFP epifluorescence. Electrophysiology experiments were performed 24–48 h after transfection.
Whole-cell current recordings, voltage-clamped at a holding potential of −60 mV, were performed at room temperature using a patch-clamp amplifier (Axopatch 200B; Molecular Devices, Sunnyvale, CA, USA) after capacitance and series resistance (<10 MΩ) compensation (80–90%). NMDAR current responses were low-pass filtered at 2 kHz, digitally sampled at 5 kHz, and analysed using pClamp software (version 10.6; Molecular Devices). Patch pipettes (3–5 MΩ), pulled from borosilicate glass, were filled with an intracellular solution (ICS) containing (in mM): 15 CsCl, 10 BAPTA, 3 MgCl2, 1 CaCl2, 120 gluconic acid, 10 HEPES, and 2 ATP-Mg salt (pH adjusted to 7.2 with CsOH). The extracellular solution (ECS) contained (in mM): 160 NaCl, 2.5 KCl, 0.2 EDTA, 10 glucose, 10 HEPES, and 0.7 CaCl2 (pH adjusted to 7.3 with NaOH). NMDAR responses were induced by 1 µM glutamate and 30 µM glycine. 1% DMSO was present in all control and testing solutions. Solution applications were performed using a microprocessor-controlled multibarrel fast-perfusion system with a solution exchange rate around the cells of ∼10 ms.[58]

Stability in rat plasma = assay type: in vitro ADME; conditions: rat plasma, 37 °C
Method: Compounds were prepared as 1.6 mg mL^−1 stock solutions in methanol. Then, 20 µL of stock solution was added to 1000 µL of rat plasma (BioIVT, Cat. No. RAT00PLLH-0102307), maintained at 37 °C. Aliquots (50 µL) withdrawn at 0, 8, and 24 h were analyzed by HPLC. An aliquot of plasma was extracted with methanol (450 µL) containing an internal standard, and the solution was vortexed (20 s) and centrifuged at 13 500 rpm for 10 min. The supernatant was transferred to an autosampler vial, and 10 µL was injected into an LC-MS system. The samples were analyzed using an Agilent 6230 TOF LC/MS. Samples were separated on a Waters ACQUITY UPLC CSH Phenyl-Hexyl column (100 × 2.1, 130 Å, 1.7 µm) at a flow rate of 0.3 mL min^−1. […]. The temperature, the flow rate of the nitrogen drying gas, the pressure of the nitrogen nebulizing gas, and the flow rate of the sheath gas were set at 325 °C, 10 L min^−1, 40 psi, […], and 11 L min^−1, respectively. Results are represented as a percentage of the compound remaining in spiked plasma.

T1 sequence (Q00960 27-1482, other chains not shown): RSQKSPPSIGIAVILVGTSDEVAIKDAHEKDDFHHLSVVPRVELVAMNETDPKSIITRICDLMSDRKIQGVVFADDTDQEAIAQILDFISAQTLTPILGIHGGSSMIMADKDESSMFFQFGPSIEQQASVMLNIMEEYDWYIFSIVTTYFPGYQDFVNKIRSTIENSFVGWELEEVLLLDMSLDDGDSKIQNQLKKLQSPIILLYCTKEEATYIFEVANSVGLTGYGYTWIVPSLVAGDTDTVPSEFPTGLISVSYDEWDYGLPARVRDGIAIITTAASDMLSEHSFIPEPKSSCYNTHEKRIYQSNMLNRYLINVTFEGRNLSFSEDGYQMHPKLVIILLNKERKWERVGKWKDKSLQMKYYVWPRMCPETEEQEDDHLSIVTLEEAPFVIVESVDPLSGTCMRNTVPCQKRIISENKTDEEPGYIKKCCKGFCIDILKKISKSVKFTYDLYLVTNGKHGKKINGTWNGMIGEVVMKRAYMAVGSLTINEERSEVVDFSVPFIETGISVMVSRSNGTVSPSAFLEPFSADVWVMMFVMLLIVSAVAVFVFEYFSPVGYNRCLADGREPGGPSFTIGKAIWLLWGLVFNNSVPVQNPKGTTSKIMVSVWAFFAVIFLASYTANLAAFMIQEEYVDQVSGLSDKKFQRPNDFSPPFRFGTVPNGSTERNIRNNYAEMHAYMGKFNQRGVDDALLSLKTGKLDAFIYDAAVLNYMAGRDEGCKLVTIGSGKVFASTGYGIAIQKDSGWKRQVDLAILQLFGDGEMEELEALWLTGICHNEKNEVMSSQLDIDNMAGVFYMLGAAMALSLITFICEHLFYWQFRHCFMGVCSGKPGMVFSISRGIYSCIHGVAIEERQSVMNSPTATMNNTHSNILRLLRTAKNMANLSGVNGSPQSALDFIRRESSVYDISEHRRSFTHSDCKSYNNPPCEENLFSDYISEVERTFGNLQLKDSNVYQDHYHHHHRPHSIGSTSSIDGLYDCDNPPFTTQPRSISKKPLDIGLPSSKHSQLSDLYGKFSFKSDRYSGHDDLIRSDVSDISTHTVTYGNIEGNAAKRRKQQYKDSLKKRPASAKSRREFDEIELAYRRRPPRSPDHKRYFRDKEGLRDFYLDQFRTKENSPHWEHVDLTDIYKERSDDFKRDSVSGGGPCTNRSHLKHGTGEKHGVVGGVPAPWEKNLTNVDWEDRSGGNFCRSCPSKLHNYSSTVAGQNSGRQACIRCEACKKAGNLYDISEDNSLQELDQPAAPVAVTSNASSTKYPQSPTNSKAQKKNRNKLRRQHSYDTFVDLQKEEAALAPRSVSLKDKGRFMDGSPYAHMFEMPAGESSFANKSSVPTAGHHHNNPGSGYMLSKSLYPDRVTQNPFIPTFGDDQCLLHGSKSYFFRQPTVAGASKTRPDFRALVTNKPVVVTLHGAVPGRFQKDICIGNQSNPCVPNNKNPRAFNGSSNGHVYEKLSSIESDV

CCON=C(C)C1CCC2C3CC=C4CC(OC(=O)CCCC(=O)O)CCC4(C)C3CCC12C (stereo not drawn) [Compound 12, 20-Oxo-pregn-5-en-3β-yl hemiglutarate O-ethyloxime]
Efficacy relative to PES (GluN1/GluN2B receptors; Emax compared with PES): over 6 fold
h ± SEM (apparent Hill coefficient) (GluN1/GluN2B receptors; concentration-response fit, mean ± SEM): 1.7 ± 0.3
EC50 (GluN1/GluN2B receptors; half-maximal potentiation of currents evoked by 1 µM glutamate, HEK293, mean ± SEM): 8.7 ± 1.1 µM
Emax (GluN1/GluN2B receptors; maximal potentiation of currents evoked by 1 µM glutamate and 30 µM glycine, HEK293, mean ± SEM): 673 ± 121%
Stability in rat plasma (% remaining) 8 h (Stability in rat plasma; 8 h): 85.6 ± 1.0 % remaining and 86 ± 1 % remaining
Stability in rat plasma (% remaining) 24 h (Stability in rat plasma; 24 h): 59.6 ± 0.7 % remaining and 60 ± 1 % remaining
